Results reported in PubChem BioAssay (NCI).
Values joined by “and” are separate entries in the source; they are usually repeats but may differ in a detail not shown here. Identical values can stand only once.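 Growth conditions: 96-well plates. Treatment: test compound, 48 hours, 5 concentrations. Analysis: linear interpolation between bracketing concentrations; unreached endpoints set to highest concentration. Abbreviation: GI50, concentration required for 50% inhibition of growth. TGI denotes the concentration required for complete inhibition of growth.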

Experiments:
Test in all cases: growth of human tumour cells (NCI), 48 h
[1] = system: M14 melanoma
[2] = system: NCI/ADR-RES ovarian
[3] = system: HOP-62 NSCLC
[4] = system: MALME-3M melanoma
[5] = system: UO-31 renal
[6] = system: RXF 393 renal
[7] = system: NCI-H460 lung
[8] = system: SK-MEL-28 melanoma
[9] = system: U251 CNS
[10] = system: SR leukemia

Row | Structure (SMILES) | TGI [1] | TGI [2] | TGI [3] | TGI [4] | TGI [5] | TGI [6] | TGI [7] | TGI [8] | TGI [9] | TGI [10] | GI50 [1] | GI50 [5] | GI50 [6] | GI50 [8]
1 | C=CCCCN(C(=O)c1ccccc1)c1ccc(C(=O)OC)o1 | > 100 µM | > 100 µM | > 100 µM | > 100 µM | > 100 µM | > 100 µM | > 100 µM |  |  |  |  |  |  | 
2 | Cc1ccc(N=Nc2c(O)ccc3ccccc23)c(C)c1 | > 100 µM | > 100 µM | > 100 µM |  | > 100 µM | > 100 µM |  | > 100 µM | > 100 µM |  |  |  |  | 
3 | COc1ccc(C2C3=C(COC3=O)Oc3cc4c(cc32)OCO4)cc1OC (configuration not stated) | > 100 µM | 7.7 µM | > 96.9 µM | > 100 µM | > 100 µM | 5.7 µM | > 100 µM | > 100 µM | > 100 µM |  |  |  |  | 
4 | CC(=O)N1CCOC12N=NC(C)(C)O2 (configuration not stated) | > 100 µM | > 100 µM | > 100 µM | > 100 µM | > 100 µM |  | > 100 µM | > 100 µM | > 100 µM | > 100 µM |  |  |  | 
5 | CCCCn1c(-c2ccccc2)cs/c1=N\NC(=O)Cn1c(C)nc2ccccc21 | > 100 µM |  | > 100 µM | > 100 µM | > 100 µM | 94.1 µM | > 100 µM |  | > 100 µM | 50.9 µM |  |  |  | 
6 | Cc1cc(NS(=O)(=O)c2ccc(Nc3c4ccccc4nc4c(C(=O)NC(CO)(CO)CO)cccc34)cc2)no1 | > 100 µM | > 100 µM | 68.8 µM | 92.2 µM | > 100 µM |  |  | > 100 µM | > 100 µM | 91.4 µM |  |  |  | 
7 | CSCSCC(CO)NC(=O)/C=C\c1c(C)[nH]c(=O)[nH]c1=O (configuration not stated) |  | 296 µM | 246 µM | 76.6 µM | 126 µM | 249 µM | 109 µM | 219 µM | 201 µM |  |  |  |  | 
8 | CCOC(=O)/C=C(/C(=O)OCC)n1cc(C)c(=O)n(Cc2cn(CCCCOC(C)=O)nn2)c1=O |  | 65.6 µM | > 100 µM |  | 28.3 µM | > 100 µM | 34.1 µM | 35.2 µM | 45.3 µM | 62.4 µM |  |  |  | 
9 | COc1ccc(NCn2nc(CCCCCCCCc3nn(CNc4ccc(OC)cc4)c(=S)o3)oc2=S)cc1 | > 100 µM | > 100 µM | > 100 µM | > 100 µM | > 100 µM | > 100 µM | > 100 µM | > 100 µM | > 100 µM |  |  |  |  | 
10 | COc1cc(/C=C2\N=C(c3ccccc3)N(c3cc4cc(Sc5ccccc5)ccc4[nH]3)C2=O)ccc1O | > 50 µM | 36.1 µM |  | > 50 µM | > 50 µM | 27.4 µM | > 50 µM | > 50 µM |  | 20.4 µM |  |  |  | 
11 | O=C(O)C12C=CC(C1)c1ccccc12 (configuration not stated) | > 100 µM |  | > 100 µM | > 100 µM | > 100 µM |  | > 100 µM | > 100 µM | > 100 µM | > 100 µM |  |  |  | 
12 | CC(C)(C1=NC(C(C)(C)C)CO1)C1=N[C@@H](C(C)(C)C)CO1 (some centres not stated) | > 100 µM |  | > 100 µM | > 100 µM | > 100 µM | > 100 µM | > 100 µM | > 100 µM | > 100 µM | > 100 µM |  |  |  | 
13 | COc1ccc(-c2csc3c2[N+]2(C)C=CC=C2C3N2CCCC2)cc1 (configuration not stated) | > 100 µM | 63.7 µM | > 100 µM | 50.5 µM | > 100 µM | > 100 µM | 46.8 µM |  | 23.3 µM | 35.4 µM |  |  |  | 
14 | CCOC(=O)C1=C(N2CCCC2)C(=O)C(C(=O)OCC)C1 (configuration not stated) | > 100 µM | > 100 µM | > 100 µM | > 100 µM | > 100 µM | > 100 µM | > 100 µM | > 100 µM | > 100 µM |  |  |  |  | 
15 | Cc1c2cc[n+](C)cc2c(C)c2c1[nH]c1ccc(OCC(F)(F)F)cc12 | > 100 µM |  |  | 8.25 µM | > 100 µM | > 100 µM |  | > 100 µM | 1.49 µM | 23 µM and > 52.1 µM | 11.6 µM and > 94.3 µM | 36.6 µM and > 100 µM | > 100 µM | 5.31 µM and > 33.4 µM
16 | CC12CC(c3ccccc3O1)C(C(=O)Nc1nccs1)C(=O)N2 (configuration not stated) | > 100 µM | > 100 µM | > 100 µM | > 100 µM | > 100 µM | > 100 µM | > 100 µM | > 100 µM | > 100 µM |  |  |  |  | 
17 | c1ccc(C2N=C(c3ccccn3)C(c3ccccn3)=NC2c2ccccc2)cc1 (configuration not stated) | > 100 µM |  | > 100 µM | > 100 µM | > 100 µM | > 100 µM | > 100 µM | > 100 µM | > 100 µM |  |  |  |  | 
18 | C=C1C(=O)OC2C[C@@]3(C)CCCC(=C)C3CC12 (some centres not stated) | 20.6 µM |  | 34.9 µM | 13.4 µM | 17.1 µM | 10.5 µM | 18.1 µM | 24 µM | 21.7 µM | > 100 µM |  |  |  | 
19 | O=C1OC2(CCCCC2)C(Oc2ccc(Cl)cc2)=C1F | > 100 µM |  | > 100 µM | 51.6 µM | > 100 µM | > 100 µM | > 100 µM | 81.5 µM | > 100 µM | > 100 µM |  |  |  | 
20 | COc1ccc(/C=C/C(=O)c2cc(CN(C)C)c(O)c(CN(C)C)c2)cc1 |  | > 100 µM | 56.1 µM | 54.2 µM | 86.9 µM | > 100 µM | 49.3 µM | > 100 µM | > 100 µM | > 100 µM |  |  |  | 
21 | Clc1cc(Cl)nc(Nc2ccc3c(c2)CCC3)n1 | > 100 µM | > 100 µM |  | 93.3 µM | > 100 µM |  | > 100 µM | > 100 µM | > 100 µM | 77.6 µM |  |  |  | 
22 | COC(=O)c1c(CC(=O)OC(C)C)cc2n(c1=O)Cc1c-2nc2ccccc2c1OC | > 100 µM |  | > 100 µM | > 100 µM | > 100 µM | 99.6 µM | > 100 µM | > 100 µM | > 100 µM | > 100 µM |  |  |  | 
23 | CSCCC(NC(=O)C(Cc1c[nH]c2ccccc12)NC(=O)CCNC(=O)OC(C)(C)C)C(=O)NC(CC(=O)O)C(=O)NC(Cc1ccccc1)C(N)=O (configuration not stated) | > 50 µM | > 50 µM | > 50 µM |  |  | > 50 µM |  | > 50 µM | > 50 µM |  |  |  |  | 
24 | Cc1ccc(N2Cc3c(ccc4ccccc34)OP2(=S)N2CCCC2)cc1 (configuration not stated) |  | > 100 µM | > 100 µM | > 100 µM | > 100 µM | > 100 µM | > 100 µM | > 100 µM | > 100 µM |  |  |  |  | 
